Blank lines part the entries; values can stand above or below the molecule they belong to.
Tests used:
[1] = Oxidation stability test on flavonoids in simple preparations (color of solutions); format: physicochemical; conditions: 0.103 M in ethoxydiglycol, Pantone color
Experimental: A solution of […] containing 31.1 g/l (i.e. 0.103 M) is prepared in ethoxy-diglycol. The pH is adjusted to 5 or 6 and then 10 g/l of a preservative based on parabens are added to the mixture in order to avoid bacterial pollution. […] At identical molar concentrations, the two products are therefore compared for their oxidation stability, the color parameters being used as the stability indicators. The color references given in the Examples which follow refer to the Pantone colors as used in all the paint color charts well known to those skilled in the art.

[2] = Oxidation stability test on flavonoids in complex preparations (emulsions); format: physicochemical; conditions: 45° C.
Experimental: Oxidation stability test on flavonoids in complex preparations (emulsions) Composition of the formulation: [table] After studying the stabilities over about 1 month, it can be said that the color of the formulations containing flavonoids used in the form which has not been rendered lipophilic undergoes an extremely unfavorable change at 45° C.

[3] = biological target: T1, human leukocytic elastase (Homo sapiens, UniProt P08246); test: Determination of the anti-elastase activity (elastin-rhodamine, fluorescence); format: biochemical; conditions: solubilized in ethoxydiglycol, 20 min at 37° C.
T1 sequence (P08246 30-267): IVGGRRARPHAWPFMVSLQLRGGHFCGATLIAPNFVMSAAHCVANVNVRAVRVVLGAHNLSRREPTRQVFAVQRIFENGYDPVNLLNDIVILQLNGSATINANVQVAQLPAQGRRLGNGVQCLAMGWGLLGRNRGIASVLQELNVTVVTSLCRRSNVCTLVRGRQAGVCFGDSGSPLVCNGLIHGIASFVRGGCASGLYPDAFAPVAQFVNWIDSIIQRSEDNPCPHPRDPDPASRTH
Experimental: The enzymatic substrate elastin-rhodamine is dissolved in TrisHCl buffer (31.52 g of TrisHCl, water qsp 1000 ml) of pH 8.8 at a rate of 15 mg/ml. 1 mg of human leukocytic elastase is dissolved in 20 ml of TrisHCl buffer. The products of the invention are evaluated for their capacity to inhibit the degradation of elastin, which can be followed by fluorescence (excitation at 530 nm; emission at 590 nm) after the incubation, for 20 min at 37° C., of a mixture comprising the substrate, the enzyme and the inhibitor to be tested. The results are given as % inhibition relative to the inhibitor-free control.

[4] = Determination of the free radical inhibiting activity in vitro; conditions: 30 minutes; for % free radical inhibiting activity: dissolved in ethoxydiglycol, control subtracted; for Free radical inhibiting activity: compound at 25 mM, dissolved in DMSO, DMSO control subtracted
Experimental: A 60 μM solution of 1,1-diphenyl-2-picrylhydrazyl in ethanol is placed in contact, for 30 minutes at room temperature, with a sample originating from the products of the invention whose free radical inhibiting power is to be determined. […] The higher the percentage decrease, the stronger will be the free radical inhibiting activity of the active ingredient tested.

[5] = in vivo
Experimental: This preparation is used for the following toxicity studies:
The tests were performed by the official method in accordance with the decree of Feb.

[6] = test concentration 1.03^−3 mol/l
[7] = test concentration 1.03^−4 mol/l
[8] = test concentration 1.03^−5 mol/l

Color of the solutions 1 day after manufacture ([1]; pH 5, 4° C.): 157C
Color of the solutions 21 days after manufacture ([1]; pH 5, 4° C.): black +
Color of the solutions 1 day after manufacture ([1]; pH 5, 20° C.): 157C
Color of the solutions 21 days after manufacture ([1]; pH 5, 20° C.): black +
Color of the solutions 1 day after manufacture ([1]; pH 5, 45° C.): 157C
Color of the solutions 21 days after manufacture ([1]; pH 5, 45° C.): black +
Color of the solutions 1 day after manufacture ([1]; pH 6, 4° C.): 157C
Color of the solutions 21 days after manufacture ([1]; pH 6, 4° C.): black +
Color of the solutions 1 day after manufacture ([1]; pH 6, 20° C.): 157C
Color of the solutions 21 days after manufacture ([1]; pH 6, 20° C.): black +
Color of the solutions 1 day after manufacture ([1]; pH 6, 45° C.): 157C
Color of the solutions 21 days after manufacture ([1]; pH 6, 45° C.): black +
Stability test: color of cream, T 1 day ([2]; 520 μM in cream (emulsion)): light beige
Stability test: color of cream, T 7 days ([2]; 520 μM in cream (emulsion)): yellow
Stability test: color of cream, T 25 days ([2]; 520 μM in cream (emulsion)): yellow
Stability test: color of cream, T 35 days ([2]; 520 μM in cream (emulsion)): yellow
Stability test: color of cream, T 1 day ([2]; 1043 μM in cream (emulsion)): more
Stability test: color of cream, T 7 days ([2]; 1043 μM in cream (emulsion)): very yellow
Stability test: color of cream, T 25 days ([2]; 1043 μM in cream (emulsion)): very yellow
Stability test: color of cream, T 35 days ([2]; 1043 μM in cream (emulsion)): very yellow
Anti-elastase test: % inhibition relative to the inhibitor-free control [3, 6]: 20%
Anti-elastase test: % inhibition relative to the inhibitor-free control [3, 7]: 24%
Anti-elastase test: % inhibition relative to the inhibitor-free control [3, 8]: 0%
% free radical inhibiting activity ([4]; 0.103 mol/l): 94%
% free radical inhibiting activity ([4]; 1.03^−3 mol/l): 28%
% free radical inhibiting activity ([4]; 1.03^−5 mol/l): 8%
Molecule: COc1ccc([C@@H]2CC(=O)c3c(O)cc(O)cc3O2)cc1O [Hesperitin, hesperitin]
Free radical inhibiting activity [4]: 42%

Molecule: CCCC(=O)Oc1cc(OC(=O)CCC)c2c(c1)OC(c1ccc(OC)c(OC(=O)CCC)c1)CC2=O (stereo not shown) [Example 12, hesperitin triacylated by C4]
Skin irritation [5]: did not cause any irritation phenomena

Molecule: hesperitin triacylated by C18:2 [Example 15]
Skin irritation [5]: did not cause any irritation phenomena

Anti-elastase test: % inhibition relative to the inhibitor-free control ([3]; test concentration 0.103 mol/l): 100%
Anti-elastase test: % inhibition relative to the inhibitor-free control [3, 6]: 50%
Anti-elastase test: % inhibition relative to the inhibitor-free control [3, 7]: 36%
Anti-elastase test: % inhibition relative to the inhibitor-free control [3, 8]: 34%
Molecule: Hesperitin monoacylated by C12 [Example 7]

Molecule: hesperitin diacylated by C12 [Example 6]
Anti-elastase test: % inhibition relative to the inhibitor-free control ([3]; test concentration 0.103 mol/l): 100%
Anti-elastase test: % inhibition relative to the inhibitor-free control [3, 6]: 65%
Anti-elastase test: % inhibition relative to the inhibitor-free control [3, 8]: 29%
Free radical inhibiting activity [4]: 67%
